{"source": "PubChem BioAssay (NCI)", "assay_in_all_cases": "NCI anticancer screen, dose series, 48 h", "key": {"ACHN renal": {"system": "ACHN renal"}, "PC-3 prostate": {"system": "PC-3 prostate"}, "SF-295 CNS": {"system": "SF-295 CNS"}, "UACC-62 melanoma": {"system": "UACC-62 melanoma"}, "SK-MEL-5 melanoma": {"system": "SK-MEL-5 melanoma"}, "SNB-75 CNS": {"system": "SNB-75 CNS"}, "LOX IMVI melanoma": {"system": "LOX IMVI melanoma"}, "MDA-MB-231 breast": {"system": "MDA-MB-231 breast"}, "NCI-H460 lung": {"system": "NCI-H460 lung"}, "A498 renal": {"system": "A498 renal"}}, "note": "Where “and” joins values, the source holds several entries; their conditions need not be identical. Equal values may be shown once.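 Values below derive from 48-hour exposures of cells grown in 96-well plates, with endpoints linearly interpolated between the two concentrations bracketing the appropriate inhibition level. GI50 = concentration required for 50% inhibition of growth. At the TGI there is no net growth.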", "data": [{"compound": "O=S(=O)(NCCCNc1cc(-c2cn(-c3ccccc3)nc2-c2cccc(O)c2)ccn1)c1ccc(Cl)cc1", "values": [{"measurement": "GI50", "setting": "ACHN renal", "value": 2.74, "unit": "µM"}, {"measurement": "TGI", "setting": "ACHN renal", "value": 13.6, "unit": "µM"}, {"measurement": "GI50", "setting": "PC-3 prostate", "value": 1.74, "unit": "µM"}, {"measurement": "TGI", "setting": "PC-3 prostate", "value": 6.1, "unit": "µM"}, {"measurement": "GI50", "setting": "SF-295 CNS", "value": 1.42, "unit": "µM"}, {"measurement": "TGI", "setting": "SF-295 CNS", "value": 3.29, "unit": "µM"}, {"measurement": "GI50", "setting": "UACC-62 melanoma", "value": 1.67, "unit": "µM"}, {"measurement": "TGI", "setting": "UACC-62 melanoma", "value": 3.67, "unit": "µM"}, {"measurement": "GI50", "setting": "SK-MEL-5 melanoma", "value": 1.23, "unit": "µM"}, {"measurement": "TGI", "setting": "SK-MEL-5 melanoma", "value": 2.55, "unit": "µM"}, {"measurement": "GI50", "setting": "SNB-75 CNS", "value": 1.45, "unit": "µM"}, {"measurement": "TGI", "setting": "SNB-75 CNS", "value": 7.99, "unit": "µM"}, {"measurement": "GI50", "setting": "LOX IMVI melanoma", "value": 1.42, "unit": "µM"}, {"measurement": "TGI", "setting": "LOX IMVI melanoma", "value": 2.77, "unit": "µM"}, {"measurement": "GI50", "setting": "MDA-MB-231 breast", "value": 1.81, "unit": "µM"}, {"measurement": "TGI", "setting": "MDA-MB-231 breast", "value": 4.69, "unit": "µM"}, {"measurement": "GI50", "setting": "NCI-H460 lung", "value": 1.68, "unit": "µM"}, {"measurement": "TGI", "setting": "NCI-H460 lung", "value": 3.32, "unit": "µM"}, {"measurement": "GI50", "setting": "A498 renal", "value": 0.329, "unit": "µM"}, {"measurement": "TGI", "setting": "A498 renal", "value": 2.24, "unit": "µM"}]}, {"compound": "Nc1c(C(=O)Nc2ccccc2)sc2nc3c(cc12)CCCC3", "values": [{"measurement": "GI50", "setting": "ACHN renal", "value": 1.61, "unit": "µM"}, {"measurement": "TGI", "setting": "ACHN renal", "value": "> 100", "unit": "µM"}, {"measurement": "GI50", "setting": "PC-3 prostate", "value": 0.703, "unit": "µM"}, {"measurement": "TGI", "setting": "PC-3 prostate", "value": "> 71.2", "unit": "µM"}, {"measurement": "GI50", "setting": "SF-295 CNS", "value": 0.635, "unit": "µM"}, {"measurement": "TGI", "setting": "SF-295 CNS", "value": 49.6, "unit": "µM"}, {"measurement": "GI50", "setting": "UACC-62 melanoma", "value": 0.493, "unit": "µM"}, {"measurement": "TGI", "setting": "UACC-62 melanoma", "value": "> 100", "unit": "µM"}, {"measurement": "GI50", "setting": "SK-MEL-5 melanoma", "value": 0.365, "unit": "µM"}, {"measurement": "TGI", "setting": "SK-MEL-5 melanoma", "value": 2.24, "unit": "µM"}, {"measurement": "GI50", "setting": "SNB-75 CNS", "value": 0.551, "unit": "µM"}, {"measurement": "TGI", "setting": "SNB-75 CNS", "value": 40.8, "unit": "µM"}, {"measurement": "GI50", "setting": "LOX IMVI melanoma", "value": 0.908, "unit": "µM"}, {"measurement": "TGI", "setting": "LOX IMVI melanoma", "value": "> 100", "unit": "µM"}, {"measurement": "GI50", "setting": "MDA-MB-231 breast", "value": 3.93, "unit": "µM"}, {"measurement": "TGI", "setting": "MDA-MB-231 breast", "value": "> 100", "unit": "µM"}, {"measurement": "GI50", "setting": "NCI-H460 lung", "value": 0.458, "unit": "µM"}, {"measurement": "TGI", "setting": "NCI-H460 lung", "value": "> 75.9", "unit": "µM"}, {"measurement": "GI50", "setting": "A498 renal", "value": 0.227, "unit": "µM"}, {"measurement": "TGI", "setting": "A498 renal", "value": 30, "unit": "µM"}]}, {"compound": "C[n+]1ccc(-c2c3nc(c(-c4ccc5c(ccc[n+]5C)c4)c4ccc([nH]4)c(-c4cc[n+](C)cc4)c4nc(c(-c5ccc6c(ccc[n+]6C)c5)c5ccc2[nH]5)C=C4)C=C3)cc1", "values": [{"measurement": "GI50", "setting": "ACHN renal", "value": 27.9, "unit": "µM"}, {"measurement": "TGI", "setting": "ACHN renal", "value": "> 50", "unit": "µM"}, {"measurement": "GI50", "setting": "PC-3 prostate", "value": 49.5, "unit": "µM"}, {"measurement": "TGI", "setting": "PC-3 prostate", "value": "> 50", "unit": "µM"}, {"measurement": "GI50", "setting": "SF-295 CNS", "value": 40.5, "unit": "µM"}, {"measurement": "TGI", "setting": "SF-295 CNS", "value": "> 50", "unit": "µM"}, {"measurement": "GI50", "setting": "UACC-62 melanoma", "value": "> 50", "unit": "µM"}, {"measurement": "TGI", "setting": "UACC-62 melanoma", "value": "> 50", "unit": "µM"}, {"measurement": "GI50", "setting": "SK-MEL-5 melanoma", "value": 17.6, "unit": "µM"}, {"measurement": "TGI", "setting": "SK-MEL-5 melanoma", "value": "> 50", "unit": "µM"}, {"measurement": "GI50", "setting": "SNB-75 CNS", "value": 5.09, "unit": "µM"}, {"measurement": "TGI", "setting": "SNB-75 CNS", "value": 26.1, "unit": "µM"}, {"measurement": "GI50", "setting": "LOX IMVI melanoma", "value": "> 50", "unit": "µM"}, {"measurement": "TGI", "setting": "LOX IMVI melanoma", "value": "> 50", "unit": "µM"}, {"measurement": "GI50", "setting": "MDA-MB-231 breast", "value": 16.3, "unit": "µM"}, {"measurement": "TGI", "setting": "MDA-MB-231 breast", "value": "> 50", "unit": "µM"}, {"measurement": "GI50", "setting": "NCI-H460 lung", "value": 16.9, "unit": "µM"}, {"measurement": "TGI", "setting": "NCI-H460 lung", "value": "> 50", "unit": "µM"}, {"measurement": "GI50", "setting": "A498 renal", "value": 27.2, "unit": "µM"}, {"measurement": "TGI", "setting": "A498 renal", "value": "> 50", "unit": "µM"}]}, {"compound": "COc1ccc(CNc2nc(NCc3ccc(OC)cc3)c3n[nH]c(C(C)C)c3n2)cc1", "values": [{"measurement": "GI50", "setting": "ACHN renal", "value": 7.6, "unit": "µM"}, {"measurement": "TGI", "setting": "ACHN renal", "value": 20.7, "unit": "µM"}, {"measurement": "GI50", "setting": "PC-3 prostate", "value": 4.29, "unit": "µM"}, {"measurement": "TGI", "setting": "PC-3 prostate", "value": 23.8, "unit": "µM"}, {"measurement": "GI50", "setting": "SF-295 CNS", "value": 3.24, "unit": "µM"}, {"measurement": "TGI", "setting": "SF-295 CNS", "value": 9.96, "unit": "µM"}, {"measurement": "GI50", "setting": "UACC-62 melanoma", "value": 5.94, "unit": "µM"}, {"measurement": "TGI", "setting": "UACC-62 melanoma", "value": 20, "unit": "µM"}, {"measurement": "GI50", "setting": "SK-MEL-5 melanoma", "value": 1.57, "unit": "µM"}, {"measurement": "TGI", "setting": "SK-MEL-5 melanoma", "value": 3.01, "unit": "µM"}, {"measurement": "GI50", "setting": "SNB-75 CNS", "value": 0.406, "unit": "µM"}, {"measurement": "TGI", "setting": "SNB-75 CNS", "value": 5.32, "unit": "µM"}, {"measurement": "GI50", "setting": "LOX IMVI melanoma", "value": 4.45, "unit": "µM"}, {"measurement": "TGI", "setting": "LOX IMVI melanoma", "value": 17.3, "unit": "µM"}, {"measurement": "GI50", "setting": "MDA-MB-231 breast", "value": 4.67, "unit": "µM"}, {"measurement": "TGI", "setting": "MDA-MB-231 breast", "value": 21.8, "unit": "µM"}, {"measurement": "GI50", "setting": "NCI-H460 lung", "value": 2.98, "unit": "µM"}, {"measurement": "TGI", "setting": "NCI-H460 lung", "value": 31.8, "unit": "µM"}, {"measurement": "GI50", "setting": "A498 renal", "value": 2.21, "unit": "µM"}, {"measurement": "TGI", "setting": "A498 renal", "value": 16.7, "unit": "µM"}]}, {"compound": "NC[C@@](O)(c1ccc(Cl)cc1)c1ccc(-c2cn[nH]c2)cc1", "values": [{"measurement": "GI50", "setting": "ACHN renal", "value": 1.64, "unit": "µM"}, {"measurement": "TGI", "setting": "ACHN renal", "value": 4.93, "unit": "µM"}, {"measurement": "GI50", "setting": "PC-3 prostate", "value": "3.89 µM and 2.19 µM"}, {"measurement": "TGI", "setting": "PC-3 prostate", "value": "> 100", "unit": "µM"}, {"measurement": "GI50", "setting": "SF-295 CNS", "value": 0.969, "unit": "µM"}, {"measurement": "TGI", "setting": "SF-295 CNS", "value": 4.62, "unit": "µM"}, {"measurement": "GI50", "setting": "UACC-62 melanoma", "value": 3.2, "unit": "µM"}, {"measurement": "TGI", "setting": "UACC-62 melanoma", "value": "> 10", "unit": "µM"}, {"measurement": "TGI", "setting": "SK-MEL-5 melanoma", "value": "> 100", "unit": "µM"}, {"measurement": "GI50", "setting": "SNB-75 CNS", "value": "0.11 µM and 0.245 µM"}, {"measurement": "TGI", "setting": "SNB-75 CNS", "value": "2.41 µM and 3.6 µM"}, {"measurement": "GI50", "setting": "LOX IMVI melanoma", "value": 1.59, "unit": "µM"}, {"measurement": "TGI", "setting": "LOX IMVI melanoma", "value": 3.04, "unit": "µM"}, {"measurement": "GI50", "setting": "MDA-MB-231 breast", "value": "3.24 µM and 2.76 µM"}, {"measurement": "TGI", "setting": "MDA-MB-231 breast", "value": "52.3 µM and > 10 µM"}, {"measurement": "GI50", "setting": "NCI-H460 lung", "value": "3.08 µM and 2.83 µM"}, {"measurement": "TGI", "setting": "NCI-H460 lung", "value": "> 100", "unit": "µM"}, {"measurement": "GI50", "setting": "A498 renal", "value": "0.438 µM and 0.313 µM"}, {"measurement": "TGI", "setting": "A498 renal", "value": "> 23.5 µM and 7.45 µM"}]}]}
